# Source: the supplement of paper PMC11208160
# Experiment: recombinant barcode read abundance after kanamycin selection (control-corrected) (log10(CPM+1)); higher = more efficient recombination; sequences stand for … in AGTGCAGAGAAAATCGGCCAGTTTTCTCTGCCTGCAGTCCGCATGCCGT…AGATTTATGCAGCGGACTGCCTTTCTCCCAAAGTGATAAACCGGACAGTATCATGGACCGGTTTTCCCGGTAATCCGTATTTGCAAGGTTGGTTTCACT; site = the 11-nt target
# Procedure, shortened: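 Each value is log10(CPM+1). It describes recombination efficiency, taken as averaged, control-corrected counts per million of barcodes at recombinant junctions. The pooled E. coli library paired targets with IS621 bridge RNA target-binding loops, was co-electroporated with a donor plasmid, and was plated twice on chloramphenicol/ampicillin LB agar (control) and twice on chloramphenicol/ampicillin/kanamycin containing 0.1 mM IPTG.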
# 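Further: IS621 recombinase and bridge RNA in Escherichia coli cells.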
row,Sequence,recombinant barcode read abundance (log10)
1,GCGCACACTTGGGTTCTAACCTGTTGCCT (site GCGCACACTAG),1.05
2,GCGCACACTTGGGTTCTAACCTGTTGCCT (site TCGCACACTAG),0.319
3,GCGCATCCTTGGGTTCTAACCTGTTGCCT (site GCGAATCCTAG),0.719
4,GCGCATCCTTGGGTTCTAACCTGTTGCCT (site GCGCATCCTAG),0.753
5,GCGCATCCTTGGGTTCTAACCTGTTGCCT (site GCGGATCCTAG),0.306
6,GCGCATCCTTGGGTTCTAACCTGTTGCCT (site GCGTATCCTAG),0.0569
7,GCGCGTTCTTGGGTTCTAACCTGTTGCCT (site GCGAGCTCTAG),0.054
8,GCGCGTTCTTGGGTTCTAACCTGTTGCCT (site GCGCGTTCTAG),1.2
9,GCGGCTTCTTGGGTTCTAACCTGTTGCCT (site GAGGCTTCTAG),0.0638
10,GCGGCTTCTTGGGTTCTAACCTGTTGCCT (site GCGGCTTCTAG),0.868
11,GCGGCTTCTTGGGTTCTAACCTGTTGCCT (site GGGGCTTCTAG),0.0151
12,GCGGCTTCTTGGGTTCTAACCTGTTGCCT (site GTGGCTTCTAG),0.121
13,GCGTCGGCTTGGGTTCTAACCTGTTGCCT (site GCATCGGCTAG),0.474
14,GCGTCGGCTTGGGTTCTAACCTGTTGCCT (site GCCTCGGCTAG),0.177
15,GCGTCGGCTTGGGTTCTAACCTGTTGCCT (site GCGTCGGCTAG),0.183
16,GCGTCGGCTTGGGTTCTAACCTGTTGCCT (site GCTTCGGCTAG),0.405
17,GCGTGCCCTTGGGTTCTAACCTGTTGCCT (site CCGTGCCCTAG),0.552
18,GCGTGCCCTTGGGTTCTAACCTGTTGCCT (site GCGTGCCCTAG),0.82
19,GCTAACCCTTGGGTTCTAACCTGTTGCCT (site ACTAAACCTAG),0.5
20,GCTAACCCTTGGGTTCTAACCTGTTGCCT (site GCTAACCCTAG),1.18
21,GCTAGTTCTTGGGTTCTAACCTGTTGCTT (site ACTCGTTCTAA),0.0742
22,GCTAGTTCTTGGGTTCTAACCTGTTGCTT (site GCTAGTTCTAA),0.351

row,Sequence,recombinant barcode read abundance (log10)
1,GCTCATACTTGGGTTCTAACCTGTTGCCT (site CACGCGCCTCC),0.0433
2,GCTCATACTTGGGTTCTAACCTGTTGCCT (site GCTCATACTAG),0.714
3,GCTCTAGCTTGGGTTCTAACCTGTTGCTA (site ACTCTAGCTGA),0.143
4,GCTCTAGCTTGGGTTCTAACCTGTTGCTA (site GCTCTAGCTTA),0.515
5,GCTGCGACTTGGGTTCTAACCTGTTGCCT (site GCAGCGACTAG),0.17
6,GCTGCGACTTGGGTTCTAACCTGTTGCCT (site GCCGCGACTAG),0.101
7,GCTGCGACTTGGGTTCTAACCTGTTGCCT (site GCGGCGACTAG),0.0147
8,GCTGCGACTTGGGTTCTAACCTGTTGCCT (site GCTGCGACTAG),0.972
9,GCTGCGCCTTGGGTTCTAACCTGTTGCCT (site GCCGGGCCTAG),0.225
10,GCTGCGCCTTGGGTTCTAACCTGTTGCCT (site GCTGCGCCTAG),1.05
11,GCTGGGTCTTGGGTTCTAACCTGTTGCTT (site GCAGGGTCTAA),0.466
12,GCTGGGTCTTGGGTTCTAACCTGTTGCTT (site GCCGGGTCTAA),0.284
13,GCTGGGTCTTGGGTTCTAACCTGTTGCTT (site GCGGGGTCTAA),0.0202
14,GCTGGGTCTTGGGTTCTAACCTGTTGCTT (site GCTGGGTCTAA),1.65
15,GCTTGGACTTGGGTTCTAACCTGTTGCAG (site CCTTGGACTTT),0.175
16,GCTTGGACTTGGGTTCTAACCTGTTGCAG (site GCTTGGACTCT),1.72
17,GGAAGGCCTTGGGTTCTAACCTGTTGCTT (site GGAAGGCCTAA),0.221
18,GGAAGGCCTTGGGTTCTAACCTGTTGCTT (site TTGGTCACTTG),0.0545
19,GGACACTCTTGGGTTCTAACCTGTTGCTA (site GGACACTCTAG),2.32
20,GGACACTCTTGGGTTCTAACCTGTTGCTA (site GGACACTCTTA),2.15
21,GGACATTCTTGGGTTCTAACCTGTTGCTT (site GGACATTCTAA),0.319
22,GGACATTCTTGGGTTCTAACCTGTTGCTT (site TGACATTCTAA),0.0458

row,Sequence,recombinant barcode read abundance (log10)
1,GGACCCTCTTGGGTTCTAACCTGTTGCAC (site GGACCCTCTGT),1.76
2,GGACCCTCTTGGGTTCTAACCTGTTGCAC (site TACAAGACTAC),0.0797
3,GGACCTCCTTGGGTTCTAACCTGTTGCTT (site GGACCTCCTAA),1.33
4,GGACCTCCTTGGGTTCTAACCTGTTGCTT (site GGACCTCCTAC),0.221
5,GGACCTCCTTGGGTTCTAACCTGTTGCTT (site GGACCTCCTAG),1.27
6,GGACCTCCTTGGGTTCTAACCTGTTGCTT (site GGACCTCCTAT),1.32
7,GGACGCACTTGGGTTCTAACCTGTTGCGG (site CCTAAGCCTAT),0.604
8,GGACGCACTTGGGTTCTAACCTGTTGCGG (site GGACGCACTCC),2.4
9,GGACGCCCTTGGGTTCTAACCTGTTGCCT (site GGACGACCTAG),0.427
10,GGACGCCCTTGGGTTCTAACCTGTTGCCT (site GGACGCCCTAG),1.35
11,GGACGCCCTTGGGTTCTAACCTGTTGCCT (site GGACGGCCTAG),0.186
12,GGACGCCCTTGGGTTCTAACCTGTTGCCT (site GGACGTCCTAG),0.426
13,GGACGTCCTTGGGTTCTAACCTGTTGCCT (site GGACGACCTAG),0.0935
14,GGACGTCCTTGGGTTCTAACCTGTTGCCT (site GGACGCCCTAG),0.369
15,GGACGTCCTTGGGTTCTAACCTGTTGCCT (site GGACGGCCTAG),0.0468
16,GGACGTCCTTGGGTTCTAACCTGTTGCCT (site GGACGTCCTAG),0.734
17,GGAGAGTCTTGGGTTCTAACCTGTTGCCT (site GAAGAGTCTAG),2.17
18,GGAGAGTCTTGGGTTCTAACCTGTTGCCT (site GCAGAGTCTAG),0.995
19,GGAGAGTCTTGGGTTCTAACCTGTTGCCT (site GGAGAGTCTAG),2.45
20,GGAGAGTCTTGGGTTCTAACCTGTTGCCT (site GTAGAGTCTAG),1.09
21,GGAGGAACTTGGGTTCTAACCTGTTGCCT (site GGAGGAACTAG),2.39
22,GGAGGAACTTGGGTTCTAACCTGTTGCCT (site GGAGGTACTAG),0.1
